Experimental data: ChEMBL document CHEMBL3046449, “Selective Herbicidal Activities of Ethyl 5-(4, 6-Dimethoxypyrimidin-2-ylcarbamoylsulfamoyl)-1-methylpyrazole-4-carboxylate and Its Related Compounds” (J Pestic Sci, 1990)

Legend:
Echinochloa crus-galli [1] = assay: Herbicidal activity against Echinochloa crus-galli (barnyard grass) assessed as growth inhibition measured after 2 days by preemergence activity assay; type: functional
[2] = tested on: Schoenoplectiella juncoides; assay: Herbicidal activity against Schoenoplectiella juncoides assessed as growth inhibition in paddy condition under greenhouse at 5 g/ha measured after 18 days by preemergence activity assay; type: functional; conditions: pre-emergence, 432 h, read-out: GI
Echinochloa crus-galli [3] = assay: Herbicidal activity against Echinochloa crus-galli (barnyard grass) assessed as growth inhibition in paddy condition under greenhouse at 5 g/ha measured after 18 days by preemergence activity assay; type: functional; conditions: pre-emergence, 432 h, read-out: GI
Oryza sativa [4] = assay: Effect on Oryza sativa (rice) plant growth in transplanted Oryza sativa field assessed as plant height at 30 g/ha treated after 10 days transplanting; type: organism-based; conditions: in vivo, other, 240 h
Oryza sativa [5] = assay: Effect on Oryza sativa (rice) plant growth in transplanted Oryza sativa field assessed as plant height at 20 g/ha treated after 7 days transplanting; type: organism-based; conditions: in vivo, other, 168 h
Cyperus serotinus [6] = assay: Herbicidal activity against Cyperus serotinus assessed as weed control in transplanted rice field at 30 g/ha treated after 15 days transplanting; type: functional
unidentified [7] = assay: Herbicidal activity against broadleaf weed assessed as weed control in transplanted rice field at 30 g/ha treated after 15 days transplanting; type: functional
unidentified [8] = assay: Herbicidal activity against broadleaf weed assessed as weed control in transplanted rice field at 30 g/ha treated after 7 days transplanting; type: functional
Oryza sativa [9] = assay: Effect on Oryza sativa (rice) plant growth in transplanted Oryza sativa field assessed as number of tillers at 30 g/ha treated after 7 days transplanting; type: organism-based; conditions: in vivo, other, 168 h
Oryza sativa [10] = assay: Effect on Oryza sativa (rice) plant growth in transplanted Oryza sativa field assessed as number of tillers at 20 g/ha treated after 3 days transplanting; type: organism-based; conditions: in vivo, other, 72 h
[11] = tested on: Schoenoplectiella juncoides; assay: Herbicidal activity against Schoenoplectiella juncoides assessed as weed control in transplanted rice field at 20 g/ha treated after 3 days transplanting; type: functional
Echinochloa crus-galli [12] = assay: Herbicidal activity against Echinochloa crus-galli (barnyard grass) assessed as weed control in transplanted rice field at 20 g/ha treated after 3 days transplanting; type: functional
Sagittaria pygmaea [13] = assay: Herbicidal activity against two-leaf stage Sagittaria pygmaea assessed as growth inhibition treated 7 to 15 days after planting measured by post-emergence activity assay; type: functional
Pontederia vaginalis [14] = assay: Herbicidal activity against three to five-leaf stage Monochoria vaginalis assessed as growth inhibition treated 7 to 15 days after planting measured by postemergence activity assay; type: functional
Eleocharis kuroguwai = assay: Herbicidal activity against Eleocharis kuroguwai assessed as growth inhibition measured after 2 days by pre-emergence activity assay; type: functional
Cyperus serotinus [15] = assay: Herbicidal activity against Cyperus serotinus assessed as growth inhibition measured after 2 days by preemergence activity assay; type: functional
Sagittaria pygmaea [16] = assay: Herbicidal activity against Sagittaria pygmaea assessed as growth inhibition measured after 2 days by pre-emergence activity assay; type: functional
Pontederia vaginalis [17] = assay: Herbicidal activity against Monochoria vaginalis assessed as growth inhibition measured after 2 days by preemergence activity assay; type: functional
[18] = tested on: Schoenoplectiella juncoides; assay: Herbicidal activity against Schoenoplectiella juncoides assessed as growth inhibition measured after 2 days by preemergence activity assay; type: functional
Sagittaria pygmaea [19] = assay: Herbicidal activity against Sagittaria pygmaea assessed as weed control in transplanted rice field at 30 g/ha treated after 3 days transplanting; type: functional
Echinochloa crus-galli [20] = assay: Herbicidal activity against Echinochloa crus-galli (barnyard grass) assessed as weed control in transplanted rice field at 30 g/ha treated after 3 days transplanting; type: functional
unidentified [21] = assay: Herbicidal activity against broadleaf weed assessed as weed control in transplanted rice field at 20 g/ha treated after 7 days transplanting; type: functional

CCOC(=O)c1cnn(C)c1S(=O)(=O)NC(=O)Nc1nc(OC)cc(OC)n1 [PYRAZOSULFURON ETHYL]
I75 (Echinochloa crus-galli [1]): 13 gAi/ha | inhibition of growth at 5 g/ha [2]: > 90% | inhibition of growth at 5 g/ha (Echinochloa crus-galli [3]): 40% | Activity (Oryza sativa [4]): 102% | Activity (Oryza sativa [5]): 107% | Activity (Cyperus serotinus [6]): 97% | Activity (unidentified [7]): 100% | Activity (unidentified [8]): 100% | Activity (Oryza sativa [9]): 100% | Activity (Oryza sativa [10]): 100% | Activity [11]: 97% | Activity (Echinochloa crus-galli [12]): 98% | I75 (Sagittaria pygmaea [13]): 2.7 gAi/ha | I75 (Pontederia vaginalis [14]): 2.7 gAi/ha | I75 (Eleocharis kuroguwai): 1.9 gAi/ha | I75 (Cyperus serotinus [15]): 0.9 gAi/ha | I75 (Sagittaria pygmaea [16]): 1.9 gAi/ha | I75 (Pontederia vaginalis [17]): 2.7 gAi/ha | I75 [18]: 8.3 gAi/ha | Activity (Sagittaria pygmaea [19]): 97% | Activity (Echinochloa crus-galli [20]): 97% | Activity (unidentified [21]): 100%
